# Several values for one entry are separate records, joined by “and”; a condition that tells them apart may be missing. Identical values can stand only once.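 Interpolation was linear, between the two tested concentrations surrounding the appropriate level; five concentrations were tested over 48 hours in 96-well plates. GI50 = concentration required for 50% inhibition of growth. At the TGI there is no net growth.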
# Tests used:
# Test in all cases: growth of human tumour cells (NCI), 48 h
# MALME-3M melanoma = test system: MALME-3M melanoma
# SNB-75 CNS = test system: SNB-75 CNS
# KM12 colon = test system: KM12 colon
# SW-620 colon = test system: SW-620 colon
# OVCAR-3 ovarian = test system: OVCAR-3 ovarian
# PC-3 prostate = test system: PC-3 prostate
# 786-0 renal = test system: 786-0 renal
# SK-OV-3 ovarian = test system: SK-OV-3 ovarian
# EKVX NSCLC = test system: EKVX NSCLC
# TK-10 renal = test system: TK-10 renal
SMILES,GI50 (MALME-3M melanoma) [µM],TGI (MALME-3M melanoma),GI50 (SNB-75 CNS) [µM],TGI (SNB-75 CNS),GI50 (KM12 colon) [µM],TGI (KM12 colon) [µM],GI50 (SW-620 colon) [µM],TGI (SW-620 colon),GI50 (OVCAR-3 ovarian) [µM],TGI (OVCAR-3 ovarian) [µM],GI50 (PC-3 prostate) [µM],TGI (PC-3 prostate) [µM],GI50 (786-0 renal) [µM],TGI (786-0 renal),GI50 (SK-OV-3 ovarian) [µM],TGI (SK-OV-3 ovarian) [µM],GI50 (EKVX NSCLC) [µM],TGI (EKVX NSCLC) [µM],GI50 (TK-10 renal) [µM],TGI (TK-10 renal) [µM]
O=[N+]([O-])O.[Cu+2].[NH-]CC[NH-].[NH-]CC[NH-],> 10,> 10 µM,> 10,> 10 µM,> 10,> 10,> 10,> 10 µM,> 10,> 10,> 10,> 10,> 10,> 10 µM,> 10,> 10,> 10,> 10,–,–
COc1ccc(C(=O)OC2C(OC3C(O)COC(O[C@H]4C[C@H]5[C@@H]6CC=C7C[C@@H](O)CC[C@]7(C)[C@H]6CC[C@]5(C)[C@H]4[C@H](C)C(=O)CCC(C)C)C3OC(N)=O)OCC(O)C2O)cc1 (some centres not stated),0.182,1.55 µM,< 0.003,3.87 µM,0.175,4.37,0.0183,0.429 µM,0.755,5.75,0.0073,0.473,0.00486,3.13 µM,0.0423,1.34,0.102,4.1,1.04,5.23
CC1CCC(NC(=O)N(CCCl)N=O)CC1 (configuration not stated),26,51.5 µM and 98.1 µM,27.3,74.4 µM and 66.7 µM,36.6,112,17.7,37.4 µM and 71.5 µM,–,70.4,–,96.6,13.9,32.4 µM and 64.2 µM,–,148,–,119,45.2,125
CC(C)(C)OC(=O)N1CCN(CCn2cc(C(F)(F)F)c3c(Cl)ncnc32)CC1,13.3,27.7 µM,16.2,32.9 µM,16.9,35.3,2.2,4.64 µM,1.88,3.66,1.79,3.43,14,27.2 µM,16.7,30.7,11.3,25.7,19.7,42.8
C[C@H]1[C@H](C)CC[C@]2(CO)CC[C@]3(C)C(=CC[C@@H]4[C@@]5(C)CCCNC(C)(C)[C@@H]5CC[C@]43C)[C@H]12,1.68,3.44 µM,1.49,2.9 µM,1.84,3.51,1.79,3.54 µM,1.83,3.42,1.55,2.96,1.6,3.06 µM,2.54,6.97,1.66,3.29,1.84,3.32
O=C1Nc2ccccc2/C1=C/C(=O)c1coc2c1C(=O)c1ccccc1C2=O,> 100,> 100 µM,18.9,> 100 µM,> 100,> 100,99.6,> 100 µM,> 100,> 100,> 100,> 100,> 100,> 100 µM,> 100,> 100,–,–,> 100,> 100
N#CC(NC12CC3CC(CC(C3)C1)C2)c1ccc2c(c1)OCO2 (configuration not stated),–,> 100 µM,–,> 100 µM,–,> 100,–,> 100 µM,–,> 100,–,> 100,–,> 100 µM,–,> 100,–,> 100,–,> 100
CC(C)(C)n1cc(-c2ccnc(NCCCNS(=O)(=O)c3ccc(C(F)(F)F)cc3)c2)c(-c2cccc(O)c2)n1,1.72,3.38 µM,1.94,6.04 µM,–,–,1.89,3.71 µM,1.96,3.84,1.64,3.72,1.8,3.38 µM,2.69,6.75,1.82,3.95,2.31,5.28
Nc1c(C(=O)c2cccc(-c3ccncc3)c2)cnn1-c1ccc(F)cc1F,3.98,> 16.2 µM,4.99,> 25 µM,2.05,> 25,3.12,> 25 µM,9.08,> 25,4.83,> 25,> 25,> 25 µM,19.8,> 25,–,–,> 15,> 25
COc1cc(CSc2nc3ccc(C)cc3c(=O)n2-c2ccccc2)cc(OC)c1OC,3.73,> 100 µM,0.328,2.98 µM,0.99,> 100,0.91,> 100 µM,1.95,> 27.3,3.25,> 100,6.56,> 100 µM,1.97,> 100,–,–,8.1,> 100
O=C(O)C(/C=C/c1ccccc1)c1ccccc1 (configuration not stated),–,> 100 µM,–,> 100 µM,–,–,–,> 100 µM,–,> 100,–,> 100,–,> 100 µM,–,> 100,–,> 100,–,> 100
COc1cc([N+](=O)[O-])c(OC)cc1-c1nc2sc(Cl)cn2c1/C(N)=N/C(=N)N,5.71,26.6 µM,–,–,2.75,9.16,2.15,4.63 µM,1.72,3.45,3.22,13,2.33,5.64 µM,23.7,> 62.1,9.66,40.9,7.31,24.3
CN(CCCn1c2c(c3ccccc3c1=O)C(=O)c1ccccc1-2)CCCn1c2c(c3ccccc3c1=O)C(=O)c1ccccc1-2,1.08,28.4 µM,1.74,5.21 µM,0.15,1.05,0.188,> 100 µM,–,–,0.29,–,0.0214,1.39 µM,5.45,19.7,23.5,> 100,–,–
O=C(O)CNC(=O)c1ccc(-c2ccccc2)cc1,–,> 100 µM,–,–,–,> 100,–,> 100 µM,–,> 100,–,> 100,–,> 100 µM,–,> 100,–,> 100,–,> 100
